Where “and” joins values, the source holds several entries; their conditions need not be identical. Identical values can stand only once. Toxic doses and inconclusive results are not listed.
Tested on: BDF1 mice, P388 leukemia ip, median survival T/C
Test: NCI In Vivo Anticancer Drug Screen. Data for tumor model P388 Leukemia (intraperitoneal) in B6D2F1 (BDF1) mice
Conditions: endpoint: median survival time, higher = longer survival
In short: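 Read-out is survival of treated animals expressed relative to the vehicle group, as a T/C ratio.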

[1] = dose: 25.0 mg/kg/injection, schedule: Q01DX009 (ip), vehicle: saline with Tween-80
[2] = dose: 50.0 mg/kg/injection, schedule: Q01DX009 (ip), vehicle: saline with Tween-80
[3] = dose: 100.0 mg/kg/injection, schedule: Q01DX009 (ip), vehicle: saline with Tween-80
[4] = dose: 100.0 mg/kg/injection, schedule: Q04DX003 (ip), vehicle: saline with Tween-80
[5] = dose: 200.0 mg/kg/injection, schedule: Q01DX009 (ip), vehicle: saline with Tween-80
[6] = dose: 12.5 mg/kg/injection, schedule: Q01DX009 (ip), vehicle: saline
[7] = dose: 25.0 mg/kg/injection, schedule: Q01DX009 (ip), vehicle: saline
[8] = dose: 50.0 mg/kg/injection, schedule: Q01DX009 (ip), vehicle: saline
[9] = dose: 50.0 mg/kg/injection, schedule: Q01DX009 (ip), vehicle: Klucel (hydroxypropylcellulose) (HPC)
[10] = dose: 100.0 mg/kg/injection, schedule: Q01DX009 (ip), vehicle: Klucel (hydroxypropylcellulose) (HPC)
[11] = dose: 200.0 mg/kg/injection, schedule: Q01DX009 (ip), vehicle: Klucel (hydroxypropylcellulose) (HPC)
[12] = dose: 100.0 mg/kg/injection, schedule: Q04DX003 (ip), vehicle: Klucel (hydroxypropylcellulose) (HPC)
[13] = dose: 200.0 mg/kg/injection, schedule: Q04DX003 (ip), vehicle: Klucel (hydroxypropylcellulose) (HPC)
[14] = dose: 400.0 mg/kg/injection, schedule: Q04DX003 (ip), vehicle: Klucel (hydroxypropylcellulose) (HPC)
[15] = dose: 200.0 mg/kg/injection, schedule: Q04DX003 (ip), vehicle: saline with Tween-80
[16] = dose: 400.0 mg/kg/injection, schedule: Q04DX003 (ip), vehicle: saline with Tween-80
[17] = dose: 400.0 mg/kg/injection, schedule: Q01DX009 (ip), vehicle: saline with Tween-80

## Cc1ccc(C(=O)O)cc1S(=O)(=O)Cl
dose: 4.0 mg/kg/injection, schedule: Q01DX009 (ip), vehicle: saline with Tween-80
  T/C: 117 % of control
dose: 8.0 mg/kg/injection, schedule: Q01DX009 (ip), vehicle: saline with Tween-80
  T/C: 110 % of control
dose: 16.0 mg/kg/injection, schedule: Q01DX009 (ip), vehicle: saline with Tween-80
  T/C: 90 % of control
[1]
  T/C: 104 % of control
dose: 32.0 mg/kg/injection, schedule: Q01DX009 (ip), vehicle: saline with Tween-80
  T/C: 117 % of control
[2]
  T/C: 95 % of control
dose: 50.0 mg/kg/injection, schedule: Q04DX003 (ip), vehicle: saline with Tween-80
  T/C: 106 % of control
[3]
  T/C: 98 % of control
[4]
  T/C: 100 % of control
[5]
  T/C: 95 % of control

## COc1cc2cc[n+]3c(C)c4cc5c(cc4cc3c2cc1OC)OCO5 (tested in a mixture with another compound)
dose: 2.2 mg/kg/injection, schedule: Q01DX009 (ip), vehicle: saline
  T/C: 158 % of control
dose: 3.3 mg/kg/injection, schedule: Q01DX009 (ip), vehicle: saline
  T/C: 163 % of control
dose: 5.0 mg/kg/injection, schedule: Q01DX009 (ip), vehicle: saline
  T/C: 174 % of control
dose: 7.5 mg/kg/injection, schedule: Q01DX009 (ip), vehicle: saline
  T/C: 186 % of control
[6]
  T/C: 230 % of control
[7]
  T/C: 123 % of control
[8]
  T/C: 102 % of control

## CCOc1nc(N)c(C(N)=O)cc1C#N
[1]
  T/C: 105 % of control
[2]
  T/C: 110 % of control
dose: 66.0 mg/kg/injection, schedule: Q01DX009 (ip), vehicle: saline with Tween-80
  T/C: 92 % of control and 110 % of control
[3]
  T/C: 150 % of control
dose: 150.0 mg/kg/injection, schedule: Q01DX009 (ip), vehicle: saline with Tween-80
  T/C: 88 % of control and 95 % of control

## FC(F)(F)c1cc(NC(=S)N2c3ccccc3-n3cccc3C2c2cccnc2)cc(C(F)(F)F)c1 (configuration not stated)
[9]
  T/C: 97 % of control
[10]
  T/C: 89 % of control
[11]
  T/C: 91 % of control

## Oc1c(O)c(Cl)c(Cl)c(Cl)c1Cl
dose: 12.5 mg/kg/injection, schedule: Q01DX009 (ip), vehicle: saline sonified
  T/C: 95 % of control
dose: 12.5 mg/kg/injection, schedule: Q04DX003 (ip), vehicle: saline sonified
  T/C: 100 % of control
dose: 25.0 mg/kg/injection, schedule: Q01DX009 (ip), vehicle: saline sonified
  T/C: 108 % of control
dose: 25.0 mg/kg/injection, schedule: Q04DX003 (ip), vehicle: saline sonified
  T/C: 100 % of control
dose: 50.0 mg/kg/injection, schedule: Q01DX009 (ip), vehicle: saline sonified
  T/C: 116 % of control
dose: 50.0 mg/kg/injection, schedule: Q04DX003 (ip), vehicle: saline sonified
  T/C: 100 % of control

## c1cc[n+](CCSCCSCC[n+]2ccccc2)cc1
dose: 1.56 mg/kg/injection, schedule: Q01DX009 (ip), vehicle: saline
  T/C: 120 % of control
dose: 2.3 mg/kg/injection, schedule: Q04DX003 (ip), vehicle: saline
  T/C: 122 % of control
dose: 3.0 mg/kg/injection, schedule: Q04DX003 (ip), vehicle: saline
  T/C: 104 % of control and 113 % of control
dose: 3.12 mg/kg/injection, schedule: Q01DX009 (ip), vehicle: saline
  T/C: 105 % of control
dose: 4.6 mg/kg/injection, schedule: Q04DX003 (ip), vehicle: saline
  T/C: 100 % of control and 109 % of control
dose: 6.25 mg/kg/injection, schedule: Q01DX009 (ip), vehicle: saline
  T/C: 105 % of control
dose: 6.9 mg/kg/injection, schedule: Q04DX003 (ip), vehicle: saline
  T/C: 109 % of control
dose: 9.2 mg/kg/injection, schedule: Q01DX009 (ip), vehicle: saline
  T/C: 88 % of control
dose: 9.2 mg/kg/injection, schedule: Q04DX003 (ip), vehicle: saline
  T/C: 100 % of control
dose: 13.0 mg/kg/injection, schedule: Q04DX003 (ip), vehicle: saline
  T/C: 100 % of control

## OCC1OC(n2ccc3c2ncn2ccnc32)C(O)C1O (configuration not stated)
dose: 25.0 mg/kg/injection, schedule: Q04DX003 (ip), vehicle: saline
  T/C: 110 % of control
dose: 50.0 mg/kg/injection, schedule: Q04DX003 (ip), vehicle: saline
  T/C: 102 % of control
dose: 100.0 mg/kg/injection, schedule: Q04DX003 (ip), vehicle: saline
  T/C: 96 % of control
dose: 200.0 mg/kg/injection, schedule: Q04DX003 (ip), vehicle: saline
  T/C: 102 % of control

## OC12CCCC3CCCC(CCC1)C32 (configuration not stated)
[12]
  T/C: 100 % of control
[13]
  T/C: 100 % of control
[14]
  T/C: 100 % of control

## CC(=O)O.O=CCO.[C-]#[O+].[C-]#[O+].[C-]#[O+].[C-]#[O+].[Rh].[Rh]
dose: 25.0 mg/kg/injection, schedule: Q01DX009 (ip), vehicle: Klucel (hydroxypropylcellulose) (HPC)
  T/C: 119 % of control
[9]
  T/C: 122 % of control

## O=[N+]([O-])c1ccc(Oc2ccc(C3N(c4ccccc4)CCN3c3ccccc3)cc2)c([N+](=O)[O-])c1
dose: 12.5 mg/kg/injection, schedule: Q01DX009 (ip), vehicle: water
  T/C: 99 % of control
dose: 25.0 mg/kg/injection, schedule: Q01DX009 (ip), vehicle: water
  T/C: 89 % of control
dose: 50.0 mg/kg/injection, schedule: Q01DX009 (ip), vehicle: water
  T/C: 99 % of control
dose: 100.0 mg/kg/injection, schedule: Q01DX009 (ip), vehicle: water
  T/C: 90 % of control
dose: 200.0 mg/kg/injection, schedule: Q01DX009 (ip), vehicle: water
  T/C: 91 % of control

## CCC1(C)N=C(C)C(C)S1 (configuration not stated)
[4]
  T/C: 100 % of control
[15]
  T/C: 100 % of control
[16]
  T/C: 109 % of control

## O=C(NC(=O)c1c(F)cccc1F)Nc1ccc(Cl)nc1
[3]
  T/C: 91 % of control

## O=C1c2ccccc2CC1(Cl)Cl
dose: 100.0 mg/kg/injection, schedule: Q01DX001 (ip), vehicle: saline with Tween-80
  T/C: 101 % of control
dose: 200.0 mg/kg/injection, schedule: Q01DX001 (ip), vehicle: saline with Tween-80
  T/C: 96 % of control
dose: 400.0 mg/kg/injection, schedule: Q01DX001 (ip), vehicle: saline with Tween-80
  T/C: 101 % of control

## O=C(NC(Cl)=C(Cl)Cl)P(=O)(c1ccccc1)c1ccccc1
dose: 50.0 mg/kg/injection, schedule: Q01DX005 (ip), vehicle: saline with Tween-80
  T/C: 92 % of control
dose: 100.0 mg/kg/injection, schedule: Q01DX005 (ip), vehicle: saline with Tween-80
  T/C: 111 % of control
dose: 200.0 mg/kg/injection, schedule: Q01DX005 (ip), vehicle: saline with Tween-80
  T/C: 95 % of control

## C/C(=N/N(C)C)c1ccccn1
[3]
  T/C: 103 % of control
[4]
  T/C: 104 % of control
[5]
  T/C: 100 % of control
[15]
  T/C: 100 % of control
[16]
  T/C: 100 % of control

## Cc1c(F)cc(I)cc1[N+](=O)[O-]
dose: 100.0 mg/kg/injection, schedule: Q01DX001 (ip), vehicle: Klucel (hydroxypropylcellulose) (HPC)
  T/C: 113 % of control
dose: 200.0 mg/kg/injection, schedule: Q01DX001 (ip), vehicle: Klucel (hydroxypropylcellulose) (HPC)
  T/C: 104 % of control
dose: 400.0 mg/kg/injection, schedule: Q01DX001 (ip), vehicle: Klucel (hydroxypropylcellulose) (HPC)
  T/C: 118 % of control

## OCc1ccccc1
[3]
  T/C: 95 % of control
[5]
  T/C: 104 % of control
[17]
  T/C: 108 % of control

## CCCCC/C=C/c1c(C)[nH]c2ccccc2c1=O
[12]
  T/C: 95 % of control
[13]
  T/C: 95 % of control
[14]
  T/C: 113 % of control

## C(=N\Nc1nc2ccccc2s1)/c1ccc(/C=N/Nc2nc3ccccc3s2)cc1
[10]
  T/C: 109 % of control
[12]
  T/C: 104 % of control
[11]
  T/C: 114 % of control
[13]
  T/C: 100 % of control
dose: 400.0 mg/kg/injection, schedule: Q01DX009 (ip), vehicle: Klucel (hydroxypropylcellulose) (HPC)
  T/C: 100 % of control
[14]
  T/C: 104 % of control

## Cc1cnc(O[Si](C)(C)C)nc1O[Si](C)(C)C
[3]
  T/C: 100 % of control
[5]
  T/C: 91 % of control
[17]
  T/C: 116 % of control

## CCOC(=O)c1[nH]c(C)nc1/N=N/N(C)C
[6]
  T/C: 114 % of control
[7]
  T/C: 103 % of control and 121 % of control
[8]
  T/C: 111 % of control
dose: 200.0 mg/kg/injection, schedule: Q01DX009 (ip), vehicle: saline
  T/C: 154 % of control and 180 % of control

— PubChem BioAssay AID328 (DTP/NCI, 2004)
